From US7691842B2, “Tricyclic 6-alkylidene-penems as β-lactamase inhibitors” (Wyeth LLC, priority 2002, dated 2010)
Where a name gives a salt, the structure may show the parent alone. Read-outs that look alike come from different tables or passages of the source.

Assays:
[1] = target: class A β-lactamase TEM-1 (Escherichia coli, UniProt P62593); assay: β-Lactamase inhibition, IC50 determination (nitrocefin, spectrophotometric); format: biochemical, E. Coli
Protocol: (§1) IC50 Determination for the Penem Inhibitor
(§2) β-Lactamase inhibitory activity of the penem inhibitors was determined spectrophotometrically as described by Bush et al., [Bush, K., Macalintal, C., Rasmussen, B. A., Lee, V. and Yang, Y. Antimicrobial Agents and Chemotherapy 1993, 37, 851]. Homogeneously purified class A β-lactamases TEM-1 from E. Coli and Imi-1 from Enterobacter cloacae, class B enzyme CcrA from Bacteroides fragilis and class C enzyme AmpC from Enterobacter cloaca were employed in the assay. The enzyme concentrations for TEM-1, Imi-1, CcrA and AmpC were 4.3, 7.1, 1.2 and 2.1 nM, respectively. A wide range of inhibitor concentrations were prepared in 50 mM PO4, pH 7.0 to include the possible IC50 values. The substrate used to initiate the enzyme reaction was nitrocefin at 50 μg/ml in the same buffer as the inhibitor. Initially the enzyme and inhibitor (20 μl each) were preincubated for 10 minutes at 25° C. prior to the addition of 160 μl volume of nitrocefin. Initial rates of hydrolysis were monitored for 5 minutes at 495 nm using a Molecular Devices Spectra Max 250 with kinetic protocol of SoftMax Program. Readings from the Spectra Max 250 were exported and transferred to Microsoft Excel. The percent of inhibition of each inhibitor concentration was calculated based on the control enzyme activity. The inhibitor concentration that caused a 50% reduction in the enzymatic activity (IC50) was determined graphically.

[2] = target: class A β-lactamase Imi-1 (Enterobacter cloacae, UniProt Q46991); assay: as above; format: biochemical
Protocol: as §1, §2

class B enzyme CcrA = class B enzyme CcrA (Bacteroides fragilis, UniProt P25910); assay: as above; format: biochemical; conditions: read-out: IC50 (nM) Class B Ccr
Protocol: as §1, §2

class C enzyme AmpC = class C enzyme AmpC (Enterobacter cloacae, UniProt P05364); assay: biochemical; parameters: species or system Enterobacter cloaca
Protocol: as §1, §2

[3] = test system: Clinical isolates that have been adapted to cause infection in mice; assay: In vivo antibacterial protection (7 day survival of infected mice, ED50); parameters: species or system mice strain CD-1; conditions: Mus musculus, 168 h
Text: In Vivo Antibacterial Protection
Female mice strain CD-1, approximately 18-22 grams, were received from Charles River Laboratories and quarantined 7 days prior to use. In addition, mice may be rendered neutropenic using cytoxan for particular studies.
Clinical isolates that have been adapted to cause infection in mice, are used in the experiment, including infections with strains of E. coli, K. pneumoniae, M. morganii, E. cloacae, S. marcescens, C. freundii, staphylococci, streptococci, P. aeruginosa and N. gonorrhoeae.
Mice are challenged by injecting 0.5 ml intraperitoneally or 0.05 ml intranasally of a predetermined bacterial inoculum suspended in broth, saline or hog gastric mucin (supplemented with dried bovine hemoglobin for N. gonorrhoeae). […] Antibacterial doses (dose concentration prepared by two fold serial dilutions of the antibiotic) are dissolved or suspended in 0.2% aqueous agar or methocel, phosphate buffered saline or an adjuvant are administered orally, subcutaneously or intravenously in the following manner: • a) Orally or subcutaneously: Dose volume of 0.5 ml administered ½ hr after infection. A second dose may be administered 3 hr. after infection for treatment of infections with more virulent organisms. • b) Intravenously: Dose volume of 0.2 ml, administered ½ hr. after infection. For the treatment of infections with more virulent organisms, more doses, up to 48 hr may be administered. (Intravenous dosing will not exceed 3 doses/24 hr period.) • c) Oral pretreatment: Under special circumstances, the pH of the stomach needs to be adjusted in order to increase the gastric stability of the antibiotic. For this purpose, 0.5 ml of phosphate buffered saline (pH7.8, 0.06M) (or specific approved adjuvant) is administered orally ½ hr after infection, followed 5 minutes later by 0.5 ml of antibiotic (also orally) contained in phosphate buffered saline (pH7.8, 0.06M). Animal Species
A detailed explanation as to the number of animals needed for the determination of in vivo efficacy follows: • A) Novel antibiotics are tested at 5 different dose levels with 5 mice per dose level at each of three routes of administration (oral, subcutaneous and intravenous). […] This would require 25 mice/route with 3 routes/antibiotic or 75 mice per novel compound tested. One to two novel antibiotics will be tested per experiment (75-150 mice) • B) The effectiveness of the new compound must be compared to that of a standard, or antibiotic of known effectiveness. Known or previously tested antibiotics are tested at 5 dose levels with 5 mice per dose level by a single route of administration, for a total of 25 mice/antibiotic. Usually 3-6 antibiotics will be tested per experiment. (75-150 mice). • C) Untreated controls—In each of the above tests, untreated animals are infected with 3 different concentrations of bacterial inoculum with 10 mice per concentration (30 mice total in each and every test). These untreated controls are used to determine and maintain the infection level between 10-100 LD50s as required for test to test comparison and validity. Determination of Protective Effects of Antibacterial Agents:
The protective effects of the antibacterial agent(s) are measured by the survival of the infected untreated as compared to the treated animals. For this determination, animals are observed for 7 days after treatment. A census of survivors is taken twice daily and at that time dead as well as moribund animals are removed. The 7 day survival ratio from three separate tests are pooled for estimation of median effective dose (ED50) by computerized program for probit analysis (Cleeland, R. and E. Squires. 1991. Evaluation of New Antimicrobials in Vitro and in Experimental Animal Infections. In Antibiotics in Laboratory Medicine”, 3rd. ed., edited by Victor Lorian. Willams and Wilkins Baltimore, Md. pp. 752-783). […]

E. Coli GC2920 (IRT-2) = assay: Antimicrobial susceptibility testing, microbroth dilution MIC of piperacillin + inhibitor; format: cell-based; conditions: piperacillin combined with constant 4 μg/ml inhibitor; Inc: 35° C. for 18 hours
Protocol: (§3) Antimicrobial susceptibility testing. The in vitro activities of the antibiotics were determined by the microbroth dilution method as recommended by the National Committee for Clinical Laboratory Standards (NCCLS). (NCCLS. 2000. Methods for Dilution Antimicrobial Susceptibility Tests for Bacteria That Grow Aerobically; Approved Standards: M7-A5, vol. 19. National Committee for Clinical Laboratory Standards, Villanova, Pa.). Mueller-Hinton it broth (MHBII)(BBL Cockeysville, Md.), was used for the testing procedure. Microtiter plates containing 50 μl per well of two-fold serial dilutions of piperacillin combined with a constant amount (4 μg/ml) of a B-lactamase inhibitor (final concentration) were inoculated with 50 μl of inoculum to yield the appropriate density (10^5 CFU/ml) in 100 μl. The plates were incubated for 18-22 hours at 35° C. in ambient air.

[4] = test system: P. aeruginos GC1764 (Ampc); assay: as above; format: cell-based; conditions: piperacillin combined with constant 4 μg/ml inhibitor; Inc: 35° C. for 18 hours
Protocol: as §3

[5] = test system: S. Marcescens GC1781 Sme-1 + Ampc; assay: as above; format: cell-based; conditions: piperacillin combined with constant 4 μg/ml inhibitor; Inc: 35° C. for 18 hours
Protocol: as §3

E. Coli GC2894 (Ampc) = assay: as above; format: cell-based; conditions: piperacillin combined with constant 4 μg/ml inhibitor; Inc: 35° C. for 18 hours
Protocol: as §3

E. Coli GC2844 = assay: as above; format: cell-based; conditions: piperacillin combined with constant 4 μg/ml inhibitor; Inc: 35° C. for 18 hours
Protocol: as §3

E. Coli GC2203 = assay: as above; format: cell-based; conditions: piperacillin combined with constant 4 μg/ml inhibitor; Inc: 35° C. for 18 hours
Protocol: as §3

S. aureus GC2216 = assay: as above; format: cell-based; conditions: piperacillin combined with constant 4 μg/ml inhibitor; Inc: 35° C. for 18 hours
Protocol: as §3

E. Cloacae GC1477 (Ampc) = assay: as above; format: cell-based; conditions: piperacillin combined with constant 4 μg/ml inhibitor; Inc: 35° C. for 18 hours
Protocol: as §3

E. Coli GC2847 (TEM-1) = assay: as above; format: cell-based; conditions: piperacillin combined with constant 4 μg/ml inhibitor; Inc: 35° C. for 18 hours
Protocol: as §3

[6] = enzyme 1.2 nM, 10 min preincubation at 25° C., nitrocefin 50 μg/ml, 50 mM PO4, pH 7.0
[7] = Ratio of Piperacillin Inhibitor 4:1, read-out: ED50
[8] = Ratio of Piperacillin Inhibitor 2:1, read-out: ED50
[9] = enzyme 4.3 nM, 10 min preincubation at 25° C., nitrocefin 50 μg/ml, 50 mM PO4, pH 7.0, read-out: IC50 (nM) Class A TEM-1
[10] = enzyme 7.1 nM, 10 min preincubation at 25° C., nitrocefin 50 μg/ml, 50 mM PO4, pH 7.0, read-out: IC50 (nM) Class A Imi
[11] = enzyme 2.1 nM, 10 min preincubation at 25° C., nitrocefin 50 μg/ml, 50 mM PO4, pH 7.0, read-out: IC50 (nM) Class C AmpC

class C enzyme AmpC, sequence (P05364 21-381): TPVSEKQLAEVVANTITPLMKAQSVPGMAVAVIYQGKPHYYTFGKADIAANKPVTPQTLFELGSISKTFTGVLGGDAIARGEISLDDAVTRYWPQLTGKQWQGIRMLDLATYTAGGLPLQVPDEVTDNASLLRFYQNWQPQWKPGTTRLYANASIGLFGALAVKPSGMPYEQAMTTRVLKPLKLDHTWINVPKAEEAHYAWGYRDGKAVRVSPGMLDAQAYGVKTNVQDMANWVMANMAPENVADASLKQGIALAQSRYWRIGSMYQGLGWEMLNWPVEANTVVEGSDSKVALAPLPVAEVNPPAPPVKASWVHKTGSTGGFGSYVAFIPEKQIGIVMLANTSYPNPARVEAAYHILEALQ
class A β-lactamase Imi-1, sequence (Q46991 entry or part of it): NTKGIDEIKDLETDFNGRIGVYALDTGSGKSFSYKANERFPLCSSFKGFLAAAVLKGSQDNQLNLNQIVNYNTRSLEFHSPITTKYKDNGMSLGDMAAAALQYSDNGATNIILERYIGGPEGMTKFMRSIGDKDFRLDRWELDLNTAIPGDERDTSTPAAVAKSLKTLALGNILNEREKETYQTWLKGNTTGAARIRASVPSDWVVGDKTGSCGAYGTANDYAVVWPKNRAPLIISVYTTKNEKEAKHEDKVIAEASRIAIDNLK
class A β-lactamase TEM-1, sequence (P62593 24-286 limits assumed): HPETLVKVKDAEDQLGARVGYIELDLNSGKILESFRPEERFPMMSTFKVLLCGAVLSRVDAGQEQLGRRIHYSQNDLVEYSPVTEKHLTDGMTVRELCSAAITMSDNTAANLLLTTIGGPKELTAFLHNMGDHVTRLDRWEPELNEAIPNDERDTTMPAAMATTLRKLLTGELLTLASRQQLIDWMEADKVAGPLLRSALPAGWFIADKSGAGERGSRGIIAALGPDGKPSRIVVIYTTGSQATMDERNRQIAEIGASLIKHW
class B enzyme CcrA, sequence (P25910 19-249): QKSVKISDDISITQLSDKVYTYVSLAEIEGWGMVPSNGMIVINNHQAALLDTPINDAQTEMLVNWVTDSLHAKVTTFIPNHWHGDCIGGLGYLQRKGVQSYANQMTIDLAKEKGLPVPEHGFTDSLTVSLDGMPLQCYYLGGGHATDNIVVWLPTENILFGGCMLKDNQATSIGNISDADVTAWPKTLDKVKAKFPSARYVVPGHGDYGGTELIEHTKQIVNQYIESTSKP

Row | SMILES | IC50 [1] | IC50 [2] | IC50 (class B enzyme CcrA; [6]) | IC50 (class C enzyme AmpC) | ED50 [3, 7] | ED50 [3, 8] | IC50 [1, 9] | further results
1 | O=C(O)C1=CS[C@@H]2/C(=C\c3cn4c(n3)nc3n4CCCC3)C(=O)N12 [Example 8, (5R), (6Z)-6-(4,5,6,7-tetrahydro-1,3a,3b,8-tetraaza-cyclopenta[a]indene-2-ylmethylene)-7-oxo-4-thia-1-aza-bicyclo[3.2.0]hept-2-ene-2-carboxylic acid sodium salt] | 2.4 nM | 15 nM | 450 nM | 1.4 nM | 16 to 64 mg/kg |  |  | 
2 | O=C(O)C1=CS[C@@H]2/C(=C\c3cn4c(ccc5ccccc54)n3)C(=O)N12 [Example 4, (5R),(6Z)-6-Imidazo[1,2-a]quinolin-2-ylmethylene-7-oxo-4-thia-1-azabicyclo[3.2.0]hept-2-ene-2-carboxylic acid] | 6 nM | 90 nM | 900 nM | 2.1 nM |  | 32 to 64 mg/kg |  | 
3 | O=C(O)C1=CS[C@@H]2/C(=C\c3cn4c(n3)-c3ccccc3C4)C(=O)N12 [Example 12, (5R), (6Z)-6-(5H-Imidazo[2,1-a]isoindol-2-ylmethylene)-7-oxo-4-thia-1-aza-bicyclo[3.2.0]hept-2-ene-2-carboxylic acid sodium salt] | 2.6 nM | 6.4 nM | 42 nM | 28 nM | 50 mg/kg |  |  | 
4 | O=C([O-])C1=CS[C@@H]2C(=Cc3cc4n(n3)Cc3ccccc3OC4)C(=O)N12.[Na+] [Example 11, (5R,6E&Z)-7-oxo-6-(4H,10H-pyrazolo[5,1-c][1,4]-benzoxazepin-2-ylmethylene)-4-thia-1-azabicyclo[3.2.0]hept-2-ene-2-carboxylic acid, sodium salt] |  |  | 62 nM |  |  |  | 1.4 nM | IC50 [2, 10]: 78 nM; IC50 (class C enzyme AmpC; [11]): 3.6 nM; Minimal Inhibitory Concentration E. Coli GC2920 (IRT-2) (E. Coli GC2920 (IRT-2)): 1 µg/mL; Minimal Inhibitory Concentration P. aeruginos GC1764 (Ampc) [4]: 16 µg/mL; Minimal Inhibitory Concentration S. Marcescens GC1781 Sme-1 + Ampc [5]: 1 µg/mL; Minimal Inhibitory Concentration E. Coli GC2894 (Ampc) (E. Coli GC2894 (Ampc)): 4 µg/mL; Minimal Inhibitory Concentration E. Coli GC2844 (E. Coli GC2844): 1 µg/mL; Minimal Inhibitory Concentration E. Coli GC2203 (E. Coli GC2203): 1 µg/mL; Minimal Inhibitory Concentration S. aureus GC2216 (S. aureus GC2216): <0.06 µg/mL; Minimal Inhibitory Concentration E. Cloacae GC1477 (Ampc) (E. Cloacae GC1477 (Ampc)): 32 µg/mL; Minimal Inhibitory Concentration E. Coli GC2847 (TEM-1) (E. Coli GC2847 (TEM-1)): 8 µg/mL
5 | O=C(O)C1=CS[C@@H]2/C(=C\c3cn4c(n3)sc3ccccc34)C(=O)N12 [Example 1, (5R,6Z)-6-(Imidazo[2,1-b][1,3]benzothiazol-2-ylmethylene)-7-oxo-4-thia-1-azabicyclo[3.2.0]hept-2-ene-2-carboxylic acid] |  | 160 nM | 350 nM | 1.4 nM |  | 32 to 64 mg/kg | 10 nM | 
6 | CCOc1nc2nc(C=C3C(=O)N4C(C(=O)O)=CSC34)cn2c2c1CCC2 (stereo not shown) [Example 10, 6-(5-ethoxy-7,8-dihydro-6H-3,4,8b-triaza-as-indacen-2-ylmethylene)-7-oxo-4-thia-1-aza-bicyclo[3.2.0]hept-2-ene-2-carboxylic acid] | 48 nM | 35 nM | 140 nM | 5.8 nM | 55.6 mg/kg |  |  | 
7 | COc1ccc2c(c1)sc1nc(/C=C3/C(=O)N4C(C(=O)O)=CS[C@H]34)cn12 [Example 2] |  | 180 nM | 250 nM | 2.4 nM |  | > 64 mg/kg | 18 nM | 
8 | O=C([O-])C1=CS[C@@H]2/C(=C\c3cc4oc5c(n4n3)CCCC5)C(=O)N12.[Na+] [Example 32, (5R,6Z)-7-oxo-6-(5,6,7,8-tetrahydropyrazolo[5,1-b][1,3]benzoxazol-2-ylmethylene)-4-thia-1-1-azabicyclo[3.2.0]hept-2-ene-2-carboxylic acid, sodium salt] |  |  | 180 nM |  |  |  | 2.6 nM | IC50 [2, 10]: 110 nM; IC50 (class C enzyme AmpC; [11]): 5.6 nM; Minimal Inhibitory Concentration E. Coli GC2920 (IRT-2) (E. Coli GC2920 (IRT-2)): 4 µg/mL; Minimal Inhibitory Concentration P. aeruginos GC1764 (Ampc) [4]: 64 µg/mL; Minimal Inhibitory Concentration S. Marcescens GC1781 Sme-1 + Ampc [5]: 2 µg/mL; Minimal Inhibitory Concentration E. Coli GC2894 (Ampc) (E. Coli GC2894 (Ampc)): 32 µg/mL; Minimal Inhibitory Concentration E. Coli GC2844 (E. Coli GC2844): 2 µg/mL; Minimal Inhibitory Concentration E. Coli GC2203 (E. Coli GC2203): 2 µg/mL; Minimal Inhibitory Concentration S. aureus GC2216 (S. aureus GC2216): .05 µg/mL; Minimal Inhibitory Concentration E. Cloacae GC1477 (Ampc) (E. Cloacae GC1477 (Ampc)): 64 µg/mL; Minimal Inhibitory Concentration E. Coli GC2847 (TEM-1) (E. Coli GC2847 (TEM-1)): 16 µg/mL
9 | O=C(O)C1=CS[C@@H]2/C(=C\c3cn4c(n3)sc3cc(F)ccc34)C(=O)N12 [Example 14] | 8.1 nM | 270 nM |  | 2.4 nM |  |  |  | IC50 (class B enzyme CcrA; pH 7): 370 nM; ED50 ([3]; Ratio of Piperacillin Inhibitor not given, read-out: ED50): > 64 mg/kg
